Source: patent US5284847A, “Thieno pyrazine diones, their preparation and use” (Novo Nordisk A/S, priority 1991, dated 1994)
pIC50: −log10 of the molar value.

Key:
[1] = target: T1, glycine site of the NMDA receptor complex (Rattus norvegicus, UniProt P35439); assay: In vitro [3H]-Glycine Binding to Rat Brain Membranes (Test 1); design: species or system rat (male Wistar); conditions: rat forebrain membranes, 4° C., 30 min, read-out: IC50, displacement of 50% of the specific binding of [3H]-glycine
T1 construct: Crude synaptic (P2) membranes are prepared from rat forebrains freshly dissected from male Wistar rats; from tissue; host or cells: forebrain of male Wistar rats, crude synaptic (P2) membranes, washed with Triton X-100
Protocol: The compounds according to the invention were tested as regards the affinity for one or more of the different types of excitatory amino acid receptors and studied in simple radioligand binding experiments. In essence, the method involves incubation of a particular selected radiolabelled ligand and the particular specific substance to be investigated with brain homogenates which contain the receptor. Measurement of receptor occupancy is made by determination of the specific radioactivity bound to the homogenate.
The glycine site binding activity of these compounds of the present invention can be illustrated by determining their capability for displacing radioactively labelled glycine from the glycine site.
The displacement activity of the compounds may be shown by determining the IC50 value which represents the concentration (μM) which causes a displacement of 50% of the specific binding of [^3 H)-glycine.
In vitro [^3 H]-Glycine Binding to Rat Brain Membranes (Test 1)
The membrane preparation and assay of specific [^3 H]-glycine binding is based upon methodology described by Haring et al. (1991) J. Neurochem. 57, 323-332 and Yoneda et al. (1991) J. Neurochem. 55, 237-244.
All steps are performed at 4° C. Buffers are prepared fresh each week from distilled, deionized water and filtered through sterile 0.2 μm membranes to eliminate artifacts due to microbial contamination. Crude synaptic (P2) membranes are prepared from rat forebrains freshly dissected from male Wistar rats and washed 4 times with low ionic strength buffer.,On the day of the assay these preparations are additionally washed with buffer containing a low concentration (0.08% g/g) of Triton X-100, and then twice more in the absence of this detergent. The procedure is aimed at the disruption of synaptic membrane vesicles and removal of endogenous amino acids.
Specific radioligand binding is measured by incubating membranes (400-600 μg/ml of protein) with […] [^3 H]-glycine in the presence or absence of 1mM of unlabelled glycine at 4° C. for 30 min. Free and bound ligand are separated by centrifugation. Each pellet is rinsed 2X and bound radioactivity measured by liquid scintillation counting. Test substances are substituted for unlabelled glycine in the assay.

[2] = system: convulsions induced by i.c.v. infusion of NMDA; assay: Convulsions induced by i.c.v. infusion of NMDA (Test 2), time to onset of clonic seizures; assay type: in vivo, mouse (male NMRI); conditions: i.c.v. co-infusion with NMDA, mice
Protocol: The glycine antagonists are co-infused with NMDA and their anticonvulsive effect is measured by determining a) the TVSO value which represents the dose (μg/kg) of the glycine antagonist that has to be infused per minute in order to increase time to onset of clonic seizures by 50%, b) the ED50 value which represents the dose (μg/kg) of the glycine antagonist that has to be infused per minute in order to protect 50% of the animals against clonic seizures for 150 seconds after the start of i.c.v. infusion.
Convulsions induced by i.c.v. infusion of NKDA (Test 2 & 3)
58.84 μg/ml ([…] in 2.5 μl) of NMDA (Sigma) dissolved in 0.9% NaCl is co-infused i.c.v. with a glycine antagonist at a speed of 5 μl/min. Infusion is performed through a cannula placed 1 mm posterior and 1 mm lateral to the Bregma point. The cannula is injected […] into the skull of male NMRI mice weighing 25 g (range 23-27 g). Placement and length of the cannula into the skull is fixed by a plate positioned 4.3 mm from the point of the cannula. The infusion is stopped after the appearance of clonic seizures in all extremities or 150 seconds after the start time of the infusion. At least 5 doses of each glycine antagonist are tested using 8 mice per dose.

| Structure (SMILES) | pIC50 [1] | TV50, dose infused per minute to increase time to onset of clonic seizures by 50% [2] [µg/kg] |
| --- | --- | --- |
| Cc1csc2[nH]c(=O)c(=O)[nH]c12 [Example 2, 7-Methylthieno(2,3-b)pyrazine-2,3(1H,4H)-dione] | 6.00 | 7.0 |
| Cc1sc2[nH]c(=O)c(=O)[nH]c2c1C#N [Example 6, 7-Cyano-6-methylthieno[2,3-b)pyrazine-2,3(1H,4H)-dione] | 5.90 | 44 |

Compounds with a higher pIC50 [1], results first:

| pIC50 [1] | Structure (SMILES) | TV50, dose infused per minute to increase time to onset of clonic seizures by 50% [2] [µg/kg] |
| --- | --- | --- |
| 6.74 | CCCc1c(Cl)sc2[nH]c(=O)c(=O)[nH]c12 [Example 10, 6-Chloro-7-propylthieno[2,3-b)pyrazine-2,3(1H,4H)-dione] | 9.4 |
| 6.07 | O=c1[nH]c2scc(C3CC3)c2[nH]c1=O [Example 25, 7-Cyclopropylthieno(2,3-b]pyrazine-2,3(1H,4H)-dione] | 76 |
| 6.74 | O=c1[nH]c2scc(Br)c2[nH]c1=O [Example 38, 7-Bromothieno(2,3-b)pyrazine-2,3(1H,4H)-dione] | 34.8 |
